Compared with `C(=C\c1nc(COc2cccc(CCCCn3ccnc3)c2)co1)/c1ccccc1`, `COc1ccc2cc(OCc3ccccc3)c(C(=O)OCc3ccccc3)cc2c1` is higher in melting point: 75 to 76 °C for the first, 96 to 98 °C for the second.

Compared with `CC(C)NC(=O)c1cc(N(C)C)cc(Oc2cccc(C(F)(F)F)c2)n1`, `COc1ccc(NC(=O)Nc2cccc(C(F)(F)F)c2)c(O)n1` is higher in melting point: 108 to 110 °C for the first, 223 to 224 °C for the second.

First: O=c1c(C2=CS(=O)(=O)c3cc(NS(=O)(=O)c4ccccc4)ccc3N2)c(O)c2cc(F)ccc2n1CCC1CC1
Second: O=C1CCN(Cc2ccccc2O)CC1C(c1ccc(F)cc1)c1ccc(F)cc1 (stereo not drawn)
The melting point of the first is higher: > 200 °C for the first, 151 to 152 °C for the second.

First: O=C(O)Cc1ccc(CCNC(=O)c2ccccc2)cc1
Second: NC(=O)c1ccc(NC(=O)C(CS)Cc2ccccc2)cc1 (stereo not drawn)
The melting point of the first is lower: 157 to 158 °C for the first, 195 to 197 °C for the second.

First: COc1cc(Cl)c2c(=O)c(C(C)C)coc2c1
Second: COc1ccc(C(=O)Nc2nnn[nH]2)c(OC(C)C)c1
The melting point of the first is lower: 177 to 179 °C for the first, 212 to 213 °C for the second.

First: N#CC1CCc2c(C(=O)O)cccc21 (stereo not drawn)
Second: COC(=O)Cc1ccc2c(c1)CCN2C(C)=O
The melting point of the first is higher: 206 to 208 °C for the first, 104 to 105 °C for the second.

Compared with `C#CC[C@@H](N)c1nc2cccnc2c(=O)n1Nc1ccccc1`, `O=C(CNc1ccccc1)Nc1ccc(Cl)c(Cl)c1` is lower in melting point: 206 to 208 °C for the first, 110 to 112 °C for the second.

First: CC(Oc1ccc(F)cc1)C1CN(c2ccccc2)CCN1 (stereo not drawn)
Second: CC(O)(CCO)c1ccc(Oc2ccccc2)cc1 (stereo not drawn)
The melting point of the first is higher: 80 to 82 °C for the first, 74 to 75 °C for the second.

Compared with `COc1ccc(COCc2nc(C(C)C)c(Sc3cc(Cl)cc(Cl)c3)n2C)cc1`, `COc1ccc(Cc2nc3c(c4c2[nH]c2ccccc24)CCC(C)(C)C3)cc1` is higher in melting point: 79 to 80 °C for the first, 158 °C for the second.

Compared with `CC(CO)(Sc1cc2cc(O)ccc2[nH]1)c1ccccc1` (stereo not drawn), `COc1ccc(-c2[nH]c3ccccc3c(=O)c2C(=O)O)cc1` is higher in melting point: 143 to 145 °C for the first, > 300 °C for the second.

Compared with `CCCCCCCCCCCCCCOc1ccc(C(=O)Nc2ccc(CO)cc2)cc1`, `COc1ccc(OC)c(-c2ccc(C(C)=NOCCOc3ccc(CC4SC(=O)NC4=O)cc3)cc2)c1` (stereo not drawn) is lower in melting point: 140 to 145 °C for the first, 47 to 52 °C for the second.

Compared with `CCN1N=C(c2ccc(F)cc2)c2cc(Cl)c(Cl)cc2CS1(=O)=O`, `CN1C(=O)N(c2cc(Cl)nc(Cl)c2)C(=O)[C@]12CNC[C@H]2c1ccc(C#N)cc1` (relative stereo) is lower in melting point: 218 to 221 °C for the first, 202 °C for the second.

First: Nc1ccc(OC(F)(F)F)cc1C=O
Second: Cn1nc(Oc2ccc([N+](=O)[O-])c(N)c2)cc1C(F)(F)F
The melting point of the first is lower: 42 to 44 °C for the first, 91 to 92 °C for the second.

Compared with `COC(=O)Cc1cc(Cl)ccc1O`, `COC(=O)c1cccc(CCC(=O)O)c1` is lower in melting point: 84 to 85 °C for the first, 81 °C for the second.

Compared with `CN(C)C(=O)c1ccccc1N`, `CCc1nc2c(O)c(CCC(O)c3ccccc3)c(C(=O)N(C)C)cc2n1C` (stereo not drawn) is higher in melting point: 53 to 54 °C for the first, 121 to 124 °C for the second.

First: CCOC(=O)C(C)Oc1ccc(C(C)=O)cc1 (stereo not drawn)
Second: CCN1C(=O)Cc2cc(C(C)=O)ccc21
The melting point of the first is lower: 49.6 °C for the first, 141 to 145 °C for the second.

First: CC(C)(C)Nc1nc(N2CCCC2)cc(N2CCNCC2)n1
Second: C=C(OCC1(N2CCN(C(=O)OC(C)(C)C)CC2)Cc2ccccc2C1)c1cc(C)cc(C)c1
The melting point of the first is higher: 162 to 165 °C for the first, 128 °C for the second.

First: COc1cc2c(cc1OCc1ccccc1)CCN(Cc1cccc(O[Si](C(C)C)(C(C)C)C(C)C)c1)C2
Second: CC(C)c1cccc(C(C)C)c1NC(=O)NCC(c1ccccc1)c1ccccc1
The melting point of the first is lower: 78 to 79 °C for the first, 175 to 176 °C for the second.

Compared with `FC(F)(F)c1cc(Cl)c(Oc2ccc3ccc(S)cc3c2)c(Cl)c1`, `Nc1c([N+](=O)[O-])c(C(F)(F)F)nn1-c1c(Cl)cc(C(F)(F)F)cc1Cl` is higher in melting point: 98 °C for the first, 214 to 215 °C for the second.

First: COc1ccc(CNc2ncccc2C(=O)O)cc1
Second: COC(=O)c1cncn1C(c1ccccc1)c1ccccn1 (stereo not drawn)
The melting point of the first is higher: 229 °C for the first, 96.3 °C for the second.

First: O=c1ccn(-c2cccc(C(F)(F)F)c2)nc1-n1ccnc1-c1ccccc1
Second: O=c1c2c(c3cccnc3n1-c1ccccc1)N(c1ccccc1)CC2
The melting point of the first is lower: 204 to 205 °C for the first, 220 to 222 °C for the second.

First: NC(=O)c1ccc2ccccc2c1-c1c(P(=O)(c2ccccc2)c2ccccc2)ccc2ccccc12
Second: Cc1cccc(C(Nc2ccccc2)P(=O)(Oc2ccccc2)Oc2ccccc2)n1 (stereo not drawn)
The melting point of the first is higher: 122 °C for the first, 110 to 112 °C for the second.

Compared with `CS(=O)(=O)c1ccc(-c2cccn2-c2ccc(F)cc2F)cc1`, `CCOC(=O)c1ccc(-n2nc(C(F)(F)F)cc2-c2ccc(S(C)(=O)=O)cc2)cc1` is higher in melting point: 122 to 125 °C for the first, 159 to 161 °C for the second.

First: CCOC(=O)c1[nH]c2cccc(C)c2c1Sc1ccc(Cl)cc1
Second: CCOC(=O)Cc1cccc2c(-c3ccc(N)cc3)nccc12
The melting point of the first is higher: 186 to 188 °C for the first, 129 to 132 °C for the second.

Compared with `Cc1nc(-c2ccc3ccc(Cn4c(C(C)C)nc5cc[nH]c(=O)c54)cc3c2)no1`, `CC(C)(C)OCC1CN(c2ccc3cc(O)ccc3c2)C(=O)O1` (stereo not drawn) is lower in melting point: 214 to 215 °C for the first, 177 to 178 °C for the second.

First: CCCc1c(OCCCS(=O)(=O)c2ccc(CC(=O)OC)c(Cl)c2Cl)ccc(C(C)=O)c1O
Second: CCOc1cc(-c2cc(C(F)(F)F)n3ncc(C(=O)Nc4cc(S(=O)(=O)NC(C)(C)CO)sc4Cl)c3n2)ccc1C(F)(F)F
The melting point of the first is lower: 115 to 118 °C for the first, 234 °C for the second.

First: Cc1cc(O)c2cccc(OCc3c(Cl)ccc([N+](=O)[O-])c3Cl)c2n1
Second: COc1ccc([N+](=O)[O-])c(Nc2ccc3cn[nH]c3c2)n1
The melting point of the first is lower: 255 to 258 °C for the first, 261 to 264 °C for the second.

First: COC(=O)C1C=CCN2C(=O)C(CCOC3CCCCO3)(Cc3ccccc3)C(=O)N12 (stereo not drawn)
Second: O=c1ccn(C(OC2CCCCO2)c2ccccn2)cc1 (stereo not drawn)
The melting point of the first is lower: 113 to 114 °C for the first, 173 to 176 °C for the second.

Compared with `CCCc1nc2c(N)nc3cc(-c4cccc(C(=O)N5CCOCC5)c4)ccc3c2s1`, `Cn1ncc(C(=O)N2CCCC2)c1C(=O)Nc1ccc2nc(-c3ccccc3)nn2c1` is higher in melting point: 190 to 193 °C for the first, 210 °C for the second.

First: COc1cc2ncnc(N3CCC(CCNS(C)(=O)=O)CC3)c2cc1OC
Second: COC(=O)C(=O)c1cc(OC)c(O)c([N+](=O)[O-])c1
The melting point of the first is higher: 162 to 164 °C for the first, 155 to 157 °C for the second.

First: CC(C)(C)OC(=O)N1CCc2c(n(CCOc3ccccc3)c3c(Cl)ccc(Cl)c23)CC1
Second: CCCN(CCC)S(=O)(=O)c1cc(-c2csc(=Nc3ccccc3C)n2C)ccc1Cl
The melting point of the first is higher: 132 to 133 °C for the first, 114 to 116 °C for the second.

`NCC1Cc2cc(Cl)cc(-c3ccoc3)c2O1` (stereo not drawn) and `N#Cc1coc2cc(O)ccc2c1=O` cannot be ordered by melting point: > 250 °C for the first, 292 to 293 °C for the second.

Compared with `C=CCC(C#N)(C#N)Cc1ccc(C)cc1`, `CN(CCNc1ccc([N+](=O)[O-])cc1)S(C)(=O)=O` is higher in melting point: 74.5 °C for the first, 109 °C for the second.

Compared with `CCCc1ccc(C(=O)O)c(C(=O)O)n1`, `CCOC(=O)c1cn(CC)c2cc(C(=O)C=C(C)N(C)C)ccc2c1=O` is higher in melting point: 149 to 153 °C for the first, 178 to 180 °C for the second.

First: NCCC(=O)N(N)S(=O)(=O)c1ccccc1
Second: CC(CS(=O)(=O)C(C)c1ccccc1)C(=O)O (stereo not drawn)
The melting point of the first is higher: 135 to 137 °C for the first, 91 to 93 °C for the second.

First: CC(C)Nc1nc(Br)cnc1OCC(O)CBr (stereo not drawn)
Second: CC(C)[C@H](NC(=O)OCc1ccccc1)C(N)=O
The melting point of the first is lower: 108 to 109 °C for the first, 206 °C for the second.

Compared with `Cn1c(COc2ccc(CC3SC(=O)NC3=O)cc2)nc2ccc(Oc3cccc(NC(=O)NCc4ccc(C(F)(F)F)cc4)c3)cc21` (stereo not drawn), `COc1ccccc1NC(=O)Nc1nc(NC(CC(=O)O)c2ccccc2)nc(Oc2ccc3ccccc3c2)n1` (stereo not drawn) is higher in melting point: 128 to 132 °C for the first, 149 °C for the second.

First: CC12CCC(OC(=O)C(F)(F)F)CC1=CCC1=C2CCC2(C)C(=O)CCC12 (stereo not drawn)
Second: COC(=O)[C@@H]1C[C@@H](Br)C(=O)[C@@H]2[C@@]3(C)C[C@@H](c4ccoc4)OC(=O)[C@H]3CC[C@]21C
The melting point of the first is lower: 109 to 115 °C for the first, 170 to 173 °C for the second.

First: CCC1(O)CC(=O)OCc2c1cc1n(c2=O)Cc2c-1nc1ccccc1c2C1CCCCC1 (stereo not drawn)
Second: CN(C(=O)c1ccc2c(c1)nc(NC(=O)c1cccs1)n2CCCO)C1CCCCC1
The melting point of the first is higher: > 250 °C for the first, 105 to 107 °C for the second.

First: OCCC#Cc1ccc2ccccc2n1
Second: CCCC1=NN(c2ccncc2)C(=O)C1=CNc1ccccc1CC
The melting point of the first is lower: 89 to 91 °C for the first, 159 °C for the second.

Compared with `CC(C)(C)OC(=O)N(Cc1ccc(C(=O)NCC(=N)NO)cc1)c1ccc(C(C)(C)C)cc1`, `Cc1ccc(S(=O)(=O)Nc2ccc(/C(CN3CCN(C)CC3)=N/O)cc2)cc1` is higher in melting point: 154 to 156 °C for the first, 192 to 193 °C for the second.

Compared with `CNS(=O)(=O)c1ccc(N2CCC(C(=O)OC)=Cc3cc(Br)ccc32)cc1`, `Cc1noc(NS(=O)(=O)c2ccc(-c3ccccc3)cc2)c1C` is lower in melting point: 201 to 204 °C for the first, 154 to 155 °C for the second.

First: O=C1OC(CO)CN2C1=Cc1ccsc1S2(=O)=O (stereo not drawn)
Second: C[C@H](NC(=O)Cc1cccc(F)c1)C(=O)N[C@@H]1C(=O)Nc2ccccc2O[C@@H]1c1ccccc1
The melting point of the first is higher: 210 to 212 °C for the first, 130 to 140 °C for the second.

Compared with `O=C(c1cc(Br)c(O)c(Br)c1)c1c(Cc2ccccc2)oc2ccccc12`, `O=C(O)c1ccc(-c2ncc(-c3ccc(F)cc3F)o2)cc1` is higher in melting point: 156 to 158 °C for the first, 301 to 302 °C for the second.

First: CCC1=NNC(C)=C(C(=O)OCCOC)C1c1cccc([N+](=O)[O-])c1 (stereo not drawn)
Second: CCOC(=O)c1cc2c(Cl)c(OC)c(OC)cc2s1
The melting point of the first is higher: 141 °C for the first, 124 to 126 °C for the second.

First: CNC(=O)c1cc2ccc3c(c2c(-c2ccc(OC(F)(F)F)cc2)c1CO)OCO3
Second: CCC(O)(CC)c1ccc(Cl)c2nc3n(c12)CCCN3c1ccc(Cl)cc1C(F)(F)F
The melting point of the first is higher: 195 to 197 °C for the first, 178 to 180 °C for the second.

First: CCCOc1ccc(S(=O)(=O)NCCc2c[nH]cn2)cc1-c1nc2cc(N)c([N+](=O)[O-])cc2c(=O)[nH]1
Second: COc1cc(Nc2c(C#N)cnc3cc(-c4cc(CN5CCOCC5)c(CN5CCOCC5)s4)c(OC)cc23)c(Cl)cc1Cl
The melting point of the first is higher: 169 to 172 °C for the first, 120 to 124 °C for the second.

First: O=C(CCCC1CCCCCCCCCCC1)C1=C(O)CSC1=O
Second: CC(C)(C)OC(=O)NC1CCCCC1NC(=O)c1ccccn1 (stereo not drawn)
The melting point of the first is lower: 62 to 69 °C for the first, 78 to 79 °C for the second.

Compared with `OC1CSC(Oc2ccccc2-c2cccnc2)C(O)C1O` (stereo not drawn), `CC(C)(C)[Si](C)(C)Oc1ccc2c3c1OC1C(C4OCCO4)CCC4(O)C(C2)N(CC2CC2)CCC314` (stereo not drawn) is lower in melting point: 195 °C for the first, 108 to 109 °C for the second.
